Data: patent US9920010B2, “CXCR7 receptor modulators” (IDORSIA PHARMACEUTICALS LTD, priority 2013, dated 2018)

Each compound was assayed against T1, CXCR7 (Homo sapiens, UniProt P25106) (assay: PathHunter CHO-K1 CXCR7 b-arrestin recruitment assay (CXCR7 agonistic activity)). Conditions: PathHunter CHO-K1 CXCR7 b-arrestin cell line.
T1 construct: host or cells: CHO-K1 (PathHunter CHO-K1 CXCR7 b-arrestin cell line, stably transfected)
Format: cell-based
How it was run: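 Stable CHO-K1 line with C-terminally ProLink-tagged CXCR7 and β-arrestin 2–EA fusion; β-arrestin recruitment restores β-gal activity, read by chemiluminescence after 1 h RT detection. Cells seeded 24 h, starved in OPTIMEM 3–4 h, exposed to compounds 90 min at 37 °C in HBSS/HEPES/BSA. Geometric-mean EC50 from repeated measurements.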

T1 sequence (P25106 whole entry): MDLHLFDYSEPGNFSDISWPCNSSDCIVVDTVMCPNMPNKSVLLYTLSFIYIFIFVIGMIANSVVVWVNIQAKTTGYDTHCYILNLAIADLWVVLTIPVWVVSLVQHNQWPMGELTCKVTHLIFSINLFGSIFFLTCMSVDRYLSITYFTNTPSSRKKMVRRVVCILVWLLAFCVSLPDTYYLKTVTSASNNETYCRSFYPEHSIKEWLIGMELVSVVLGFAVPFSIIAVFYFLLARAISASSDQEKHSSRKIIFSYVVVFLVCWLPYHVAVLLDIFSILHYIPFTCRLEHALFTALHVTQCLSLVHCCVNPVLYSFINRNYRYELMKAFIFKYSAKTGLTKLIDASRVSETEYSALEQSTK
T1 sequence (P32121 whole entry partner): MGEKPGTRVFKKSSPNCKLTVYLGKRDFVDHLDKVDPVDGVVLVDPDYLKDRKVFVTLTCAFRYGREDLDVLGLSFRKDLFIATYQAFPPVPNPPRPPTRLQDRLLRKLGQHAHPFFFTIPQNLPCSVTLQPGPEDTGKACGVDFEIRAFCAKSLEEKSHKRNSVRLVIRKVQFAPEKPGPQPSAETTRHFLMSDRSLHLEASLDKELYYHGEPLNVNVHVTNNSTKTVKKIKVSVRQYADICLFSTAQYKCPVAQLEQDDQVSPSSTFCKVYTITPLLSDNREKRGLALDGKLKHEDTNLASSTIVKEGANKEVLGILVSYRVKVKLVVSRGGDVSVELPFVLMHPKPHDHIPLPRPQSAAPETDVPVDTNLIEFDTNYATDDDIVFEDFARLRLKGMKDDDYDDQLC

Compared with `CC(C)OC(=O)N1CCc2cccc(NCC(=O)N(CCN(C)C)Cc3ccccc3)c2C1` [compound 192, 8-({[Benzyl-(2-dimethylamino-ethyl)-carbamoyl]-methyl}-amino)-3,4-dihydro-1H-isoquinoline-2-carboxylic acid isopropyl ester], `CN(C)CCN(Cc1ccccc1)C(=O)CNc1cccc2c1CN(C(=O)c1ccccc1)CC2` [compound 195, 2-(2-Benzoyl-1,2,3,4-tetrahydro-isoquinolin-8-ylamino)-N-benzyl-N-(2-dimethylamino-ethyl)-acetamide] is 3.2-fold lower in EC50: 38 nM for the first, 12 nM for the second.

Going from `CN(C)CCN(Cc1ccccc1)C(=O)CNc1cccc2c1CN(Cc1ccccc1)CC2` [compound 193, N-Benzyl-2-(2-benzyl-1,2,3,4-tetrahydro-isoquinolin-8-ylamino)-N-(2-dimethylamino-ethyl)-acetamide] to `CN(C)CCN(Cc1ccccc1)C(=O)CNc1cccc2c1CN(CC1CCCCC1)CC2` [compound 194, N-Benzyl-2-(2-cyclohexylmethyl-1,2,3,4-tetrahydro-isoquinolin-8-ylamino)-N-(2-dimethylamino-ethyl)-acetamide], the EC50 falls from 48 nM to 13 nM (3.7-fold).

`CCN1Cc2c(NCC(=O)N(CCN(C)C)Cc3ccccc3Cl)cccc2C(C)(C)C1` [compound 196] and `CN(C)CCN(Cc1ccccc1Cl)C(=O)CNc1cccc2c1CN(CC1CC1)CC2(C)C` [compound 197] are within 1.5-fold of each other in EC50: 264 nM for the first, 257 nM for the second.

First: CCN1Cc2c(NCC(=O)N(CCN(C)C)Cc3ccccc3C(F)(F)F)cccc2C(C)(C)C1 [compound 198]
Second: CN(C)CCN(Cc1ccccc1C(F)(F)F)C(=O)CNc1cccc2c1CN(CC1CC1)CC2(C)C [compound 199]
The EC50 of the first is 1.5-fold higher: 388 nM for the first, 255 nM for the second.

Compared with `CN1CCC(N(Cc2ccccc2C(F)(F)F)C(=O)CNc2cccc3c2CN(CC2CC2)CC3(C)C)CC1` [compound 200], `O=C(CNc1cccc2c1CCN(CC1CC1)C2)N(Cc1ccccc1C(F)(F)F)C[C@@H]1CCNC1` [compound 379] is 78-fold lower in EC50: 235 nM for the first, 3 nM for the second. The second is the more potent here.

First: CCN1CCc2cccc(NCC(=O)N(Cc3ccccc3)C3CCNCC3)c2C1 [compound 377]
Second: CNCCN(Cc1ccccc1C(F)(F)F)C(=O)CNc1cccc2c1CN(CC1CC1)CC2 [compound 384, 2-(2-Cyclopropylmethyl-1,2,3,4-tetrahydro-isoquinolin-8-ylamino)-N-(2-methylamino-ethyl)-N-(2-trifluoromethyl-benzyl)-acetamide]
The EC50 of the first is 69-fold higher: 276 nM for the first, 4 nM for the second.

First: O=C(CNc1cccc2c1CCN(CC1CC1)C2)N(Cc1ccccc1C(F)(F)F)C[C@H]1CCNC1 [compound 380]
Second: CNCCN(Cc1ccccc1C(F)(F)F)C(=O)CNc1cccc2c1CCN(C(=O)C1CCC1)C2 [compound 389, 2-(2-Cyclobutanecarbonyl-1,2,3,4-tetrahydro-isoquinolin-5-ylamino)-N-(2-methylamino-ethyl)-N-(2-trifluoromethyl-benzyl)-acetamide]
The EC50 of the first is 3.3-fold lower: 6 nM for the first, 20 nM for the second. The first is the more potent here.

Compared with `CNCCN(Cc1ccccc1C(F)(F)F)C(=O)CNc1cccc2c1CC(=O)N(CC(C)C)C2` [compound 383], `CNCCN(Cc1ccccc1C(F)(F)F)C(=O)CNc1cccc2c1CCN(C(=O)C(C)C)C2` [compound 387, 2-(2-Isobutyryl-1,2,3,4-tetrahydro-isoquinolin-5-ylamino)-N-(2-methylamino-ethyl)-N-(2-trifluoromethyl-benzyl)-acetamide] is 4.2-fold lower in EC50: 51 nM for the first, 12 nM for the second. The second is the more potent here.

Compared with `CCCC(=O)N1CCc2c(cccc2NCC(=O)N(CCNC)Cc2ccccc2C(F)(F)F)C1` [compound 386, 2-(2-Butyryl-1,2,3,4-tetrahydro-isoquinolin-5-ylamino)-N-(2-methylamino-ethyl)-N-(2-trifluoromethyl-benzyl)-acetamide], `CCCOC(=O)N1CCc2c(cccc2NCC(=O)N(CCNC)Cc2ccccc2C(F)(F)F)C1` [compound 398] is 6.8-fold higher in EC50: 12 nM for the first, 82 nM for the second.

`CNCCN(Cc1ccccc1C(F)(F)F)C(=O)CNc1cccc2c1CCN(C(=O)C(C)(C)C)C2` [compound 390] and `CNCCN(Cc1ccccc1C(F)(F)F)C(=O)CNc1cccc2c1CCN(C(=O)CC(C)(C)C)C2` [compound 393] are within 1.5-fold of each other in EC50: 83 nM for the first, 110 nM for the second.

First: CNCCN(Cc1ccccc1C(F)(F)F)C(=O)CNc1cccc2c1CCN(C(=O)CC(C)C)C2 [compound 391, N-(2-Methylamino-ethyl)-2-[2-(3-methyl-butyryl)-1,2,3,4-tetrahydro-isoquinolin-5-ylamino]-N-(2-trifluoromethyl-benzyl)-acetamide]
Second: CNCCN(Cc1ccccc1C(F)(F)F)C(=O)CNc1cccc2c1CCN(C(=O)OCC(C)C)C2 [compound 401]
The EC50 of the first is 5.1-fold lower: 49 nM for the first, 250 nM for the second. The first is the more potent here.

Compared with `CNCCN(Cc1ccccc1C(F)(F)F)C(=O)CNc1cccc2c1CCN(C(=O)OC)C2` [compound 394, 5-({[(2-Methylamino-ethyl)-(2-trifluoromethyl-benzyl)-carbamoyl]-methyl}-amino)-3,4-dihydro-1H-isoquinoline-2-carboxylic acid methyl ester], `CCOC(=O)N1CCc2c(cccc2NCC(=O)N(CCNC)Cc2ccccc2C(F)(F)F)C1` [compound 395, 5-({[(2-Methylamino-ethyl)-(2-trifluoromethyl-benzyl)-carbamoyl]-methyl}-amino)-3,4-dihydro-1H-isoquinoline-2-carboxylic acid ethyl ester] is 3.6-fold higher in EC50: 9 nM for the first, 32 nM for the second. The first is the more potent here.

`C#CCOC(=O)N1CCc2c(cccc2NCC(=O)N(CCNC)Cc2ccccc2C(F)(F)F)C1` [compound 396, 5-({[(2-Methylamino-ethyl)-(2-trifluoromethyl-benzyl)-carbamoyl]-methyl}-amino)-3,4-dihydro-1H-isoquinoline-2-carboxylic acid prop-2-ynyl ester] and `C=CCOC(=O)N1CCc2c(cccc2NCC(=O)N(CCNC)Cc2ccccc2C(F)(F)F)C1` [compound 397, 5-({[(2-Methylamino-ethyl)-(2-trifluoromethyl-benzyl)-carbamoyl]-methyl}-amino)-3,4-dihydro-1H-isoquinoline-2-carboxylic acid allyl ester] are within 1.5-fold of each other in EC50: 38 nM for the first, 35 nM for the second.

`CNCCN(Cc1ccccc1C(F)(F)F)C(=O)CNc1cccc2c1CCN(C(=O)OC(C)C)C2` [compound 399] and `CNCCN(Cc1ccccc1C(F)(F)F)C(=O)CNc1cccc2c1CCN(C(=O)NC(C)C)C2` [compound 404] are within 1.5-fold of each other in EC50: 64 nM for the first, 60 nM for the second.

Compared with `CNCCN(Cc1ccccc1C(F)(F)F)C(=O)CNc1cccc2c1CCN(C(=O)OCCF)C2` [compound 400, 5-({[(2-Methylamino-ethyl)-(2-trifluoromethyl-benzyl)-carbamoyl]-methyl}-amino)-3,4-dihydro-1H-isoquinoline-2-carboxylic acid 2-fluoro-ethyl ester], `CNCCN(Cc1ccccc1C(F)(F)F)C(=O)CNc1cccc2c1CCN(C(=O)OCC(C)(C)C)C2` [compound 402] is 6.4-fold higher in EC50: 31 nM for the first, 198 nM for the second. The first is the more potent here.

Going from `CCNC(=O)N1CCc2c(cccc2NCC(=O)N(CCNC)Cc2ccccc2C(F)(F)F)C1` [compound 403, 5-({[(2-Methylamino-ethyl)-(2-trifluoromethyl-benzyl)-carbamoyl]-methyl}-amino)-3,4-dihydro-1H-isoquinoline-2-carboxylic acid ethylamide] to `CCCCNC(=O)N1CCc2c(cccc2NCC(=O)N(CCNC)Cc2ccccc2C(F)(F)F)C1` [compound 405], the EC50 rises from 24 nM to 257 nM (11-fold).

Going from `CNCCN(Cc1ccccc1C(F)(F)F)C(=O)CNc1cccc2c1CCN(C(=O)NC(C)(C)C)C2` [compound 406] to `CNCCN(Cc1ccccc1C(F)(F)F)C(=O)CNc1cccc2c1CCN(C(=O)NC1CCCCC1)C2` [compound 407], the EC50 rises from 80 nM to 326 nM (4.1-fold). The first is the more potent here.
